Experiments:
[1] = Microsomal stability assay; format: in vitro ADME, human; conditions: pH 7.4; for CLint scaled at 1 µM: liver microsomes, scaled: 52.5 mg protein/g liver, 22.0 g liver/kg, human; for half-life at 1 µM: human liver microsomes, 37 °C
Description: (§1) 4. Microsomal stability assay
(§2) A microsomal stability assay was performed according to an internal standard procedure. Positive control compound diclofenac and three test items were freshly prepared as sub-dilutions in phosphate buffer (100 mM, pH 7.4) at concentrations of 200 µM and 20 µM, respectively. All incubations were conducted in triplicate in glass screw neck vials (1.5 mL, flat bottom, Macherey-Nagel, Düren, Germany) on a Thermomixer C (Eppendorf, Germany) at 37 °C and 1500 rpm. The incubation mixtures contained 270 µL human liver microsomes (HLM, 1.1 mg∙mL -1, UltraPool HLM 150, Corning B.V.
(§3) Life Science, Amsterdam, the Netherlands), 270 µL NADP regeneration mix (1 mM NADP, 5 mM glucose-6-phosphate, 5 units∙mL -1 glucose-6-phosphate dehydrogenase and 5 mM MgCl 2) and 30 µL phosphate buffer to reach a total volume of 570 µL. Negative controls were performed with heat inactivated (80 °C, 30 min) HLM solution. Reactions were initiated by addition of diclofenac or the test item solution (30 µL). Aliquots of 100 µL were taken at 1, 15, 30, 60, and 90 minutes and immediately processed with 100 µL acetonitrile at 4°C to terminate the reactions, and shaken for 2 minutes at 4°C with 1600 rpm. The mixed samples were further centrifuged for 2 minutes at 4 °C with 16.1 krcf. The supernatants were withdrawn and subjected to high resolution mass spectrometry analysis without […]
(§4) Analysis of microsomal stability assay
(§5) Samples were analyzed using a Vanquish Horizon UHPLC system (Thermo Fisher Scientific, Bremen, Germany) coupled to a Thermo Scientific QExactive HF-X Orbitrap mass spectrometer (Thermo Fisher Scientific, Bremen, Germany) using a UPLC column (ACQUITY HSS T3, Waters, 1.8 µm particle size, 2.1 × 50 mm dimensions) equipped with a pre-column (ACQUITY HSS T3 VanGuard Pre-column, Waters, 1.8 µm particle size, 2.1 × 5 mm dimensions). The column temperature was maintained at 25°C, and the samples were kept at 4°C. The UHPLC system was operated at a flow rate of 0.6 mL/min and an injection volume of 5 µL. Mobile phases consisted of 0.1% (v/v) formic acid in water (Eluent A) and 0.1% (v/v) formic acid in acetonitrile (Eluent B). Chromatographic separation was obtained as follows:
(§6) 0 to 4 min: a linear from 5 to 98% of Eluent B; 4 to 6.5 min: isocratic at 98% B; 6.5 to 7 min: linear from 98 to 5% B; 7 to 9 min: isocratic at 5% B. The high-resolution mass spectra were acquired with electrospray ionization at both positive and negative modes. A scan range of m/z 120 to 1800 was chosen, and the maximum injection time was set to 200 ms. Ion source parameters were: spray voltage 3.5 kV, capillary temperature 320°C, RF level 40, sheath gas pressure 50 (N 2 > 95%), auxiliary gas 10 (N2 > 95%), auxiliary gas heater temperature 300°C. The value for the automatic gain control (AGC) target was set to 10 6, resolution was 60000, and chromatographic peak width (FWHM) was 15 s.
(§7) Calculation of the results from microsomal stability assay
(§8) Elimination rate constant (k) = (- gradient)
(§9) Half-life (t ) (min) = ௟௡
(§10) V (µL∙mg -1) = ௩௢௟௨௠௘ ௢௙ ௜௡௖௨௕௔௧௜௢௡ (µ௅) […]
(§11) Intrinsic clearance in liver microsomes (Cl ) (µL∙min∙mL -1protein) = ௏ × ௟௡ଶ […]
(§12) Intrinsic clearance (Cl ) (mL∙min -1∙kg -1) = ௟௡ × ௏ × ௠௚ ௠௜௖௥௢௦௢௠௔௟ ௣௥௢௧௘௜௡ × ௚ ௟௜௩௘௥ int ௧భ/మ ଵ଴଴଴ ௚ ௟௜௩௘௥ ௪௘௜௚௛௧ ௞௚ ௕௢ௗ௬ ௪௘௜௚௛௧
(§13) (52.5 mg protein∙ g -1 liver used for human; 22.0 g∙ kg -1 liver to body weight used for human) Hepatic extraction ratio (E ) = ୤౫ × େ୪౟౤౪
(§14) (fu: fraction of drug unbound in plasma, f u = 1 used for the calculation; Q: hepatic blood flow, 20.0 mL∙min-1∙kg -1 for human).

human liver microsomes = assay: Microsomal stability assay; format: in vitro ADME; conditions: for Eh (hepatic extraction ratio): fu = 1, Q = 20.0 mL∙min-1∙kg-1, human; for Clint,micro: human liver microsomes
Description: as §1, §2, §3, §4, §5, §6, §7, §8, §9, §10, §11, §12, §13, §14

HUVEC = assay: Proliferation assay; format: cell-based; conditions: Homo sapiens, 72 h, n = 4
Description: (§15) Supplementary Method 5: Biological Assays […]
(§16) 2. Proliferation and cytotoxicity assay
(§17) Cells and culture conditions
(§18) The following cell lines and media were used:
(§19) Cell line Cell culture medium
(§20) Cells were grown in the appropriate cell culture medium supplemented with 10 mL/L ultraglutamine 1 […]
(§21) heat inactivated fetal bovine serum (GIBCO Life Technologies 10270-106) at 37 °C in 5% CO 2 in high density polyethylene flasks (NUNC 156340).
(§22) To decide if the compounds have an antiproliferative and/or a cytotoxic effect on human cells, cell death and retardation of cell proliferation were assessed. Under our experimental conditions, the optical density measured from the CellTiter-Blue® reagent and methylene blue assay is proportional to the […]
(§23) The test substances were dissolved in DMSO and further diluted in the cell culture medium. The adherent cells were harvested at the logarithmic growth phase after soft trypsinization using 0.25% trypsin in PBS containing 0.02% EDTA (Biochrom KG L2163). For each experiment, approximately 10,000 cells were seeded with 0.1 mL culture medium per well of the 96-well microplates (HUVEC: flat bottomed NUNC 167008, K-562: round bottomed NUNC 163320). To test the antiproliferative […]
(§24) effect of test compounds on HUVEC and K-562, the cells were incubated for 72 hours in plates prepared with control and different dilutions of test substances. […]
(§25) of proliferation compared to the untreated control. […]
(§26) Cells were incubated with dilutions of the test substances in microplates for 72 hours at 37 °C in a humidified atmosphere and 5% CO 2. […]
cytotoxicity and the inhibition of cell proliferation. The number of viable cells was determined subsequent to staining with CellTiter-Blue® reagent or methylene blue. […]
HUVEC and HeLa cells: The adherent HUVEC and HeLa cells were fixed by glutaraldehyde (MERCK […]
gently washing, the stain was eluted by adding 0.2 mL of hydrochloric acid (0.33 M) to each well. The optical densities were measured at 660 nm (methylene blue) in SUNRISE microplate reader (TECAN).
(§27) General remarks: Signals from the methylene blue and CellTiter-Blue® reagent are proportional to the number of viable cells. A repeat determination has been conducted in all experiments, four replicates were assayed. The calculations of the different values of GI 50 and CC 50 were performed with the software

K-562 = assay: Proliferation assay; format: cell-based; conditions: Homo sapiens, K562; 72 h, n = 4
Description: as §15, §16, §17, §18, §19, §20, §21, §22, §23, §24, §25, §26
cytotoxicity and the inhibition of cell proliferation. The number of viable cells was determined subsequent to staining with CellTiter-Blue® reagent or methylene blue.
K-562 cells: The influence of test substances on cell proliferation of K-562 was determined via the CellTiter-Blue® assay (PROMEGA). Briefly, viable cells are able to reduce the indicator dye resazurin […]
dye. Thus, formation of resorufin was followed by measuring absorption at 570 nm and subtracting absorption measured at 600 nm. […]
as §27

## COC(=O)c1cc([N+](=O)[O-])c2sc(N3CCC4(CC3)OC[C@H](C)O4)nc(=O)c2c1 [Compound 6a]
[1]
  CLint scaled at 1 µM: 363 mL/min/kg
  half-life at 1 µM: 4.45 min
Human liver microsomes
  Eh (hepatic extraction ratio): 94.8%
  Clint,micro: 314.7 µl.min-1-mg-1 protein
HUVEC
  GI50: 80.6 ± 5 µM
K-562
  GI50: 66.9 ± 12.6 µM

## CC(C)OC(=O)c1cc([N+](=O)[O-])c2sc(N3CCC4(CC3)OC[C@H](C)O4)nc(=O)c2c1 [Compound 6c]
[1]
  CLint scaled at 1 µM: 61.1 mL/min/kg
  half-life at 1 µM: 26.5 min
Human liver microsomes
  Eh (hepatic extraction ratio): 75.3%
  Clint,micro: 52.9 µl.min-1-mg-1 protein
HUVEC
  GI50: > 111 µM
K-562
  GI50: > 111 µM

## C[C@H]1COC2(CCN(c3nc(=O)c4cc(C(=O)N(C)C)cc([N+](=O)[O-])c4s3)CC2)O1 [Compound 7c]
[1]
  CLint scaled at 1 µM: 3 mL/min/kg
  half-life at 1 µM: 533 min
Human liver microsomes
  Eh (hepatic extraction ratio): 13%
  Clint,micro: 2.6 µl.min-1-mg-1 protein
HUVEC
  GI50: > 115 µM
K-562
  GI50: > 115 µM

## CON(C)C(=O)c1cc([N+](=O)[O-])c2sc(N3CCC4(CC3)OC[C@H](C)O4)nc(=O)c2c1 [Compound 7f]
[1]
  CLint scaled at 1 µM: 11 mL/min/kg
  half-life at 1 µM: 147 min
Human liver microsomes
  Eh (hepatic extraction ratio): 35.5%
  Clint,micro: 9.5 µl.min-1-mg-1 protein
HUVEC
  GI50: 98.5 ± 3.3 µM
K-562
  GI50: > 111 µM

## C[C@H]1COC2(CCN(c3nc(=O)c4cc(C(=O)O)cc([N+](=O)[O-])c4s3)CC2)O1 [Compound 8]
HUVEC
  GI50: > 123 µM
K-562
  GI50: > 123 µM

## C[C@H]1COC2(CCN(c3nc(=O)c4cc(C#N)cc([N+](=O)[O-])c4s3)CC2)O1 [Compound 9]
[1]
  CLint scaled at 1 µM: 15.4 mL/min/kg
  half-life at 1 µM: 105 min
Human liver microsomes
  Eh (hepatic extraction ratio): 43.5%
  Clint,micro: 13.3 µl.min-1-mg-1 protein
HUVEC
  GI50: 49.9 ± 4.1 µM
K-562
  GI50: 94.4 ± 5.9 µM

## C[C@H]1COC2(CCN(c3nc(=O)c4cc(I)cc([N+](=O)[O-])c4s3)CC2)O1 [Compound 10]
[1]
  CLint scaled at 1 µM: 19.1 mL/min/kg
  half-life at 1 µM: 84.5 min
Human liver microsomes
  Eh (hepatic extraction ratio): 48.8%
  Clint,micro: 16.1 µl.min-1-mg-1 protein
HUVEC
  GI50: > 102 µM
K-562
  GI50: > 102 µM

## C[C@H]1COC2(CCN(c3nc(=O)c4cc(Br)cc([N+](=O)[O-])c4s3)CC2)O1 [Compound 11]
[1]
  CLint scaled at 1 µM: 18.4 mL/min/kg
  half-life at 1 µM: 87.7 min
Human liver microsomes
  Eh (hepatic extraction ratio): 47.9%
  Clint,micro: 16 µl.min-1-mg-1 protein
HUVEC
  GI50: > 113 µM
K-562
  GI50: > 113 µM

## C[C@H]1COC2(CCN(c3nc(=O)c4cccc([N+](=O)[O-])c4s3)CC2)O1 [Compound 23]
[1]
  CLint scaled at 1 µM: 5.8 mL/min/kg
  half-life at 1 µM: 277 min
Human liver microsomes
  Eh (hepatic extraction ratio): 22.5%
  Clint,micro: 5.1 µl.min-1-mg-1 protein
HUVEC
  GI50: > 137 µM
K-562
  GI50: > 138 µM

— paper PMC11227536, “Modulation of the Meisenheimer complex metabolism of nitro-benzothiazinones by targeted C-6 substitution” (Communications Chemistry, 2024)
